Assay results published in patent publication US20240025862A1, “SUBSTITUTED N-PHENYLURACILS AND SALTS THEREOF, AND USE THEREOF AS HERBICIDAL ACTIVE SUBSTANCES” (Bayer Aktiengesellschaft, priority 2020, published 2024).

Assays:
Type in all cases: in vivo
[1] = system: Abutilon theophrasti (ABUTH); experiment: Post-emergence herbicidal action, greenhouse pot test; conditions: rated visually after about 3 weeks vs untreated controls, 100% = plants have died
Outline: (§1)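 Greenhouse-grown weeds in sandy loam were sprayed post-emergence at the one-leaf stage, 2–3 weeks after sowing. Compounds were formulated as WP or EC in water with 0.5% additive at 600 l/ha, at rates of 20 g/ha or less. Visual rating after about 3 weeks used a scale from 0% (like untreated control) to 100% (plants dead).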

[2] = system: Amaranthus retroflexus (AMARE); experiment: as above; conditions: rated visually after about 3 weeks vs untreated controls, 100% = plants have died
Outline: as §1

[3] = system: Pharbitis purpurea (PHBPU); experiment: as above
Outline: as §1

[4] = system: Polygonum convolvulus (POLCO); experiment: as above
Outline: as §1

Veronica persica (VERPE) = experiment: as above
Outline: as §1

Viola tricolor (VIOTR) = experiment: as above
Outline: as §1

[5] = system: Alopecurus myosuroides (ALOMY); experiment: Post-emergence herbicidal action, greenhouse pot test (also comparative test C); conditions: 20 g/ha, rated visually after about 3 weeks vs untreated controls, 100% = plants have died
Outline: (§2)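 Green parts of one-leaf-stage plants are sprayed at 600 l/ha with formulated compound plus 0.5% additive, then kept under optimum greenhouse conditions for about 3 weeks. Damage is scored visually, where 100% means dead plants and 0% means no difference from controls.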

[6] = system: Echinochloa crus-galli (ECHCG); experiment: as above
Outline: as §2

[7] = system: Matricaria inodora (MATIN); experiment: as above
Outline: as §2

Setaria viridis (SETVI) = experiment: as above; conditions: for Post-emergence action against SETVI: 20 g/ha
Outline: as §2

[8] = system: Triticum aestivum (TRZAS); experiment: Post-emergence crop plant compatibility, greenhouse pot test; conditions: vs untreated controls
Outline: (§3)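 Crop plants grown in sandy loam in the greenhouse were sprayed post-emergence at the one-leaf stage, 2–3 weeks after sowing, with WP or EC formulations as aqueous suspension/emulsion plus 0.5% additive at 600 l/ha. Damage was rated visually about 3 weeks later versus untreated controls (0% = like control, 100% = plants dead).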

Zea mays (ZEAMX) = experiment: as above; conditions: 1.25 g/ha, vs untreated controls
Outline: as §3

Oryza sativa (ORYSA) = experiment: Post-emergence crop plant compatibility, greenhouse pot test (also comparative test C); conditions: for Post-emergence action against ORYSA (crop plant compatibility): vs untreated controls
Outline: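 Rice and other crops sprayed post-emergence at one-leaf stage (2–3 weeks after sowing) with WP or EC formulations plus 0.5% additive at 600 l/ha water. Visual rating about 3 weeks later versus untreated controls (100% = dead, 0% = like control); suffixes a–c denote different doses.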

| Structure (SMILES) | Post-emergence action at 1.25 g/ha against ABUTH in % [1] [%] | Post-emergence action at 5 g/ha against ABUTH in % [1] [%] | Post-emergence action at 20 g/ha against ABUTH in % [1] [%] | Post-emergence action at 5 g/ha against AMARE in % [2] [%] | Post-emergence action at 20 g/ha against AMARE in % [2] [%] | Post-emergence action against PHBPU in % ([3]; dosage 5 g/ha) [%] | Post-emergence action against PHBPU in % ([3]; dosage 20 g/ha) [%] | Post-emergence action against POLCO in % ([4]; dosage 20 g/ha) [%] | Post-emergence action against VERPE (Veronica persica (VERPE); 1.25 g/ha) [%] | Post-emergence action against VERPE (Veronica persica (VERPE); 5 g/ha) [%] | Post-emergence action against VERPE (Veronica persica (VERPE); 20 g/ha) [%] | Post-emergence action against VIOTR (Viola tricolor (VIOTR); 1.25 g/ha) [%] | Post-emergence action against VIOTR (Viola tricolor (VIOTR); 5 g/ha) [%] | Post-emergence action against VIOTR (Viola tricolor (VIOTR); 20 g/ha) [%] | Post-emergence action at 20 g/ha against ALOMY in % [5] [%] | Post-emergence action against ECHCG in % ([6]; dosage 5 g/ha) [%] | Post-emergence action against ECHCG in % ([6]; dosage 20 g/ha) [%] | Post-emergence action against MATIN in % ([7]; dosage 5 g/ha) [%] | Post-emergence action against MATIN in % ([7]; dosage 20 g/ha) [%] | Post-emergence action against SETVI (Setaria viridis (SETVI)) [%] | also measured |
| --- | --- | --- | --- | --- | --- | --- | --- | --- | --- | --- | --- | --- | --- | --- | --- | --- | --- | --- | --- | --- | --- |
| Cn1c(C(F)(F)F)cc(=O)n(-c2cc(Oc3ccccc3OCC(=O)OCc3cccnc3)c(Cl)cc2F)c1=O [I.7-277] | 90 | 100 | 100 | 100 | 100 | 100 | 100 | 100 | 100 | 100 | 100 | 80 | 100 | 100 | 100 | 100 | 100 | 80 | 100 | 100 | Post-emergence action at 1.25 g/ha against AMARE in % ([2]; 1.25 g/ha): 100%; Post-emergence action against SETVI in % (Setaria viridis (SETVI); dosage 1.25 g/ha): 100%; Post-emergence action against SETVI in % (Setaria viridis (SETVI); dosage 5 g/ha): 100%; Post-emergence action against TRZAS (crop plant compatibility) ([8]; 1.25 g/ha): 0%; Post-emergence action against TRZAS (crop plant compatibility) ([8]; 5 g/ha): 20%; Post-emergence action against ZEAMX (crop plant compatibility) (Zea mays (ZEAMX)): 0%; Post-emergence action against ORYSA (crop plant compatibility) (Oryza sativa (ORYSA); 1.25 g/ha): 0%; Post-emergence action against ORYSA (crop plant compatibility) (Oryza sativa (ORYSA); 5 g/ha): 0%; Post-emergence action against ORYSA in % (Oryza sativa (ORYSA); 20 g/ha, crop plant compatibility): 20% |
| COCCOC(=O)COc1ccc(F)cc1Oc1cc(-n2c(=O)cc(C(F)(F)F)n(C)c2=O)c(F)cc1Cl [I.23-1] | 100 | 100 | 100 | 100 | 100 | 80 | 80 | 100 | 80 | 100 | 100 | 80 | 100 | 100 | 90 | 100 | 100 | 80 | 100 | 100 | Post-emergence action against POLCO in % ([4]; dosage 1.25 g/ha): 90%; Post-emergence action against POLCO in % ([4]; dosage 5 g/ha): 100%; Post-emergence action against SETVI in % (Setaria viridis (SETVI); dosage 1.25 g/ha): 100%; Post-emergence action against SETVI in % (Setaria viridis (SETVI); dosage 5 g/ha): 100%; Post-emergence action against TRZAS (crop plant compatibility) ([8]; 1.25 g/ha): 20%; Post-emergence action against ZEAMX (crop plant compatibility) (Zea mays (ZEAMX)): 20%; Post-emergence action against ORYSA (crop plant compatibility) (Oryza sativa (ORYSA); 1.25 g/ha): 0% |
